Measured values published in article PMC12290280 (Plant and Cell Physiology, 2025).

Assays:
Assay in all cases: radiometric in vitro kinase assay, autoradiography
Type in all cases: biochemical
[1] = target: T1, His-Raf12 (Arabidopsis thaliana, UniProt F4JMR7); conditions: autophosphorylation and histone phosphorylation; 200 µM ATP plus [γ-32P]ATP, labelled compound; 10 mM MgCl2; pH 7.5; room temperature
T1 construct: gene At4g23050; 6 x His tag, pET30a(+), expressed in E. coli BL21 (DE3); insert from cDNA of ABA-treated Col-0 leaf epidermis
T1 sequence (F4JMR7 1-735): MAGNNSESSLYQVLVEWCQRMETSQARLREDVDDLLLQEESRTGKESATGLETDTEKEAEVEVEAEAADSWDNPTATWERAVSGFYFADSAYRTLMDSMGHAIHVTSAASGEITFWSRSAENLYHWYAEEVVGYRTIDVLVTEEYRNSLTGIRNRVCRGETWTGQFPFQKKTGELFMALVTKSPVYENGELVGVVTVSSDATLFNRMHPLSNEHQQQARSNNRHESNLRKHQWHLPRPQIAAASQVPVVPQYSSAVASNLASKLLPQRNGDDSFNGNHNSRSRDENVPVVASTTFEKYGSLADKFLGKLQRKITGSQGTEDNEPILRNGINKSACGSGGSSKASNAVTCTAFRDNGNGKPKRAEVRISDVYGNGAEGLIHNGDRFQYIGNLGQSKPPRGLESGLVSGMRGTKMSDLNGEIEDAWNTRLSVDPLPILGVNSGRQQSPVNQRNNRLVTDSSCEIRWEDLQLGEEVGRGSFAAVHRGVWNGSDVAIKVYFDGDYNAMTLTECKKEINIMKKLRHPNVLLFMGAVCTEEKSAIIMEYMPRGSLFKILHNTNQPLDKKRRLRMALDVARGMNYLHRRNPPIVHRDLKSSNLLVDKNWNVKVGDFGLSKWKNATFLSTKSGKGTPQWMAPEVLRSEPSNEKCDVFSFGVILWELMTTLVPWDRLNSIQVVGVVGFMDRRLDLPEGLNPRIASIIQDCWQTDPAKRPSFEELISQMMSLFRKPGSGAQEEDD

[2] = target: T2, His-M3K∂6 (Arabidopsis thaliana, UniProt Q9C9U5); conditions: autophosphorylation and histone phosphorylation; 200 µM ATP plus [γ-32P]ATP, labelled compound; 10 mM MgCl2; pH 7.5; room temperature
T2 construct: gene SIS8; 6 x His tag, expressed in E. coli BL21 (DE3); plasmid from Takahashi et al. 2020
T2 sequence (Q9C9U5 1-1030): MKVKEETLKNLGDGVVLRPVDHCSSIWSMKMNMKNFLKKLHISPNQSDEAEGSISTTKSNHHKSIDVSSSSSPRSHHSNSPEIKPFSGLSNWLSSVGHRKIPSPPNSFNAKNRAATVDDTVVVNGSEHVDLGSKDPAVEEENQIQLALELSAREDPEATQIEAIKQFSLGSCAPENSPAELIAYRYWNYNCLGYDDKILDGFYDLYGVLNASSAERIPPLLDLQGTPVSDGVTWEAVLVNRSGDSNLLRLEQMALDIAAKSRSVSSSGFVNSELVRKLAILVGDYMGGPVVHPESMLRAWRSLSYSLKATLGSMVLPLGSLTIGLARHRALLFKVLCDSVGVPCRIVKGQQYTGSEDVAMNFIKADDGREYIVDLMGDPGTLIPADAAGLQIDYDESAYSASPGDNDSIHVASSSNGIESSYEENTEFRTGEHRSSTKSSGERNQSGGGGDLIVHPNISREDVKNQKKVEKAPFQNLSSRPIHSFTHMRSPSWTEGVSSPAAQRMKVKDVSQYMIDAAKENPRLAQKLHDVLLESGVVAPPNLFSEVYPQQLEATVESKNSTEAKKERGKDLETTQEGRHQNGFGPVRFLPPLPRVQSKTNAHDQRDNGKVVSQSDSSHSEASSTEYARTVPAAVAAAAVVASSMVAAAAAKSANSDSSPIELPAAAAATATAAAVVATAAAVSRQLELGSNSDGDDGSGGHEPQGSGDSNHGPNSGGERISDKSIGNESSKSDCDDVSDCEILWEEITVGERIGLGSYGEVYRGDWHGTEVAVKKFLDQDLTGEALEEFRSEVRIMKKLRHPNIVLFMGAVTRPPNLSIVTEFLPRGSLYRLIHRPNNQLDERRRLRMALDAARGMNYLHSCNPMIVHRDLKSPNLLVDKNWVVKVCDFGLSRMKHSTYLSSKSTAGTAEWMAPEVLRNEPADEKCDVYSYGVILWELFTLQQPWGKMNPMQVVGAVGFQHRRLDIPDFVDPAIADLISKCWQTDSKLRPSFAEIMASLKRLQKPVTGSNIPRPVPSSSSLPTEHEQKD

[3] = target: T3, His-OST1 (Arabidopsis thaliana, UniProt Q940H6); conditions: 200 µM ATP plus [γ-32P]ATP, 10 mM MgCl2, pH 7.5, room temperature
T3 construct: gene SRK2E; 6 x His tag, expressed in E. coli BL21 (DE3); plasmid from Takahashi et al. 2020
T3 sequence (Q940H6 1-362): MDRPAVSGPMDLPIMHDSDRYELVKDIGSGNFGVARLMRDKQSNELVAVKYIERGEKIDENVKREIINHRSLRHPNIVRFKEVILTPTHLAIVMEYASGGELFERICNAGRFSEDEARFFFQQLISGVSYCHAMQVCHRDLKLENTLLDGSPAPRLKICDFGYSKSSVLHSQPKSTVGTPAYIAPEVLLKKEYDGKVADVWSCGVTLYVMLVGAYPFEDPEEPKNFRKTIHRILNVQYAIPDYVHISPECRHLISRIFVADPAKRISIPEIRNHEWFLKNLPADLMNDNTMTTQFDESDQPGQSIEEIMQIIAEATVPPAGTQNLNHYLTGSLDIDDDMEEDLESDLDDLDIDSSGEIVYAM

Row | Structure (SMILES) | radiometric in vitro kinase assay, autoradiography [1] | radiometric in vitro kinase assay, autoradiography [2] | radiometric in vitro kinase assay, autoradiography ([3]; autophosphorylation and histone phosphorylation, labelled compound) | radiometric in vitro kinase assay, autoradiography ([3]; 100 µM K252a, 20 min preincubation, histone substrate)
1 | Nc1ncnc2c1ncn2[C@@H]1O[C@H](COP(=O)(O)OP(=O)(O)OP(=O)(O)O)[C@@H](O)[C@H]1O [ATP] | the kinase activity of Raf12, a B2 clade Raf-like kinase, was not inhibited by PP242 | we conducted protein phosphorylation assays using Raf-like kinases in both of these clades | His-OST1 autophosphorylated and phosphorylated histone proteins as a substrate | –
2 | COC(=O)[C@@]1(O)C[C@H]2O[C@]1(C)n1c3ccccc3c3c4c(c5c6ccccc6n2c5c31)C(=O)NC4 [K252a] | – | – | – | Kinase activity of His-OST1 was partially decreased by K252a, a potent kinase inhibitor
